According to ChEMBL document CHEMBL4130414, “Asymmetric synthesis of novel triazole derivatives and their in vitro antiviral activity and mechanism of action” (Eur J Med Chem, 2017):
Values after ≈ are worked out from the molar mass of the structure shown. Active and inactive are the calls of the source. The rule behind the calls is not given here.

Experiments:
[1] = Cytotoxicity against human RD cells assessed as reduction in cell viability after 3 days by MTT assay; assay type: cell-based
[2] = Cytotoxicity against human Hep2 cells assessed as reduction in cell viability after 3 days by MTT assay; assay type: cell-based; settings: HEp-2 cells
Enterovirus A71 [3] = assay: Antiviral activity against EV71 Xiangyang-Hubei-09 infected in human RD cells assessed as inhibition of virus-induced cytopathic effect by MTT dye based assay; assay type: functional, organism-based
[4] = Selectivity index, ratio of CC50 for human RD cells to EC50 for EV71 Xiangyang-Hubei-09 infected in human RD cells; assay type: toxicity, cell-based; settings: read-out: Ratio CC50/EC50
Coxsackievirus B3 [5] = assay: Antiviral activity against Coxsackievirus B3 (strain Nancy) infected in human HEP2 cells assessed as inhibition of virus-induced cytopathic effect by MTT dye based assay; assay type: functional, organism-based
[6] = Selectivity index, ratio of CC50 for human HEP2 cells to EC50 for Coxsackievirus B3 (strain Nancy) infected in human HEP cells; assay type: toxicity, cell-based; settings: HEp-2 cells, read-out: Ratio CC50/EC50
Enterovirus A71 [7] = assay: Antiviral activity against EV71 Xiangyang-Hubei-09 infected in human RD cells assessed as inhibition of virus-induced cytopathic effect at 16 ug/ml treated 1 hr post viral infection measured after 48 hrs by MTT dye based assay relative to control; assay type: functional; settings: for inhibition at 16 µg/mL: Enterovirus A, Xiangyang-Hubei-09, RD
Coxsackievirus B3 [8] = assay: Antiviral activity against Coxsackievirus B3 (strain Nancy) infected in human HEP2 cells assessed as inhibition of virus-induced cytopathic effect at 16 ug/ml after 48 hrs by MTT dye based assay; assay type: functional, organism-based
Enterovirus A71 [9] = assay: Antiviral activity against EV71 Xiangyang-Hubei-09 infected in human RD cells assessed as alteration in viral cell morphology at 16 ug/ml after 48 hrs; assay type: functional, organism-based
Enterovirus A71 [10] = assay: Antiviral activity against EV71 Xiangyang-Hubei-09 infected in human RD cells assessed as reduction in progeny viral yield at 16 ug/ml treated 1 hr post viral infection measured after 48 hrs; assay type: functional
Enterovirus A71 [11] = assay: Antiviral activity against EV71 Xiangyang-Hubei-09 infected in human RD cells assessed as inhibition of viral adsorption at 16 ug/ml treated simultaneously with viral infection for 2 hrs followed by washing with PBS measured after 48 hrs; assay type: functional, organism-based
Enterovirus A71 [12] = assay: Antiviral activity against EV71 Xiangyang-Hubei-09 infected in human RD cells at 16 ug/ml preincubated with RD cells for 2 hrs followed by washing with PBS and subsequent viral infection measured after 48 hrs; assay type: functional, organism-based
Enterovirus A71 [13] = assay: Antiviral activity against EV71 Xiangyang-Hubei-09 infected in human RD cells assessed as inhibition of virus-induced cytopathic effect at 16 ug/ml preincubated with RD cells for 2 hrs followed by washing with PBS and subsequent viral infection measured after 48 hrs by MTT assay; assay type: functional, organism-based
[14] = Enterovirus A, Xiangyang-Hubei-09, RD, read-out: EC50
[15] = Enterovirus B, Nancy, HEp-2, read-out: EC50

SMILES	CC50 at 72 h [1]	CC50 at 72 h [2]	EC50 (Enterovirus A71 [3]; [14])	selectivity ratio [4]	EC50 (Coxsackievirus B3 [5]; [15])	selectivity ratio [6]	other results
CC[C@H](CCn1cncn1)c1ccc(OC)cc1	118 µg/mL (≈ 483 µM)	153 µg/mL (≈ 625 µM)	15.9 µg/mL (≈ 64.8 µM)	7.4	15.1 µg/mL (≈ 61.6 µM)	10.2	–
Clc1ccc([C@H](CCn2cncn2)Cc2ccccc2)cc1	21.7 µg/mL (≈ 69.6 µM)	25.7 µg/mL (≈ 82.4 µM)	–	–	–	–	–
CCCC[C@@H](CCn1cncn1)c1ccccc1	47.5 µg/mL (≈ 195 µM)	40.8 µg/mL (≈ 168 µM)	–	–	–	–	EC50 (Enterovirus A71 [3]; rd): Not Active; EC50 (Coxsackievirus B3 [5]): Not Active
CC[C@H](CCn1cncn1)c1ccc(C)cc1	85.2 µg/mL (≈ 372 µM)	75.2 µg/mL (≈ 328 µM)	6.6 µg/mL (≈ 28.8 µM)	12.9	12.1 µg/mL (≈ 52.8 µM)	6.2	–
COc1ccc([C@H](CCn2cncn2)Cc2ccccc2)cc1	66 µg/mL (≈ 215 µM)	60.3 µg/mL (≈ 196 µM)	12.2 µg/mL (≈ 39.7 µM)	5.4	12.2 µg/mL (≈ 39.7 µM)	4.9	–
CCC[C@H](CCn1cncn1)c1ccc(F)cc1	38.4 µg/mL (≈ 155 µM)	39.3 µg/mL (≈ 159 µM)	–	–	–	–	–
Cc1ccc(C(CCn2cncn2)C2CCCCC2)cc1 (single isomer, unassigned)	57.9 µg/mL (≈ 204 µM)	57.3 µg/mL (≈ 202 µM)	10.6 µg/mL (≈ 37.4 µM)	5.5	11.7 µg/mL (≈ 41.3 µM)	4.9	–
CCCC[C@H](CCn1cncn1)c1ccc(C)cc1	26.5 µg/mL (≈ 103 µM)	23.7 µg/mL (≈ 92.1 µM)	–	–	–	–	–
Cc1ccc(C[C@H](CCn2cncn2)c2ccccc2)cc1	37.8 µg/mL (≈ 130 µM)	38.8 µg/mL (≈ 133 µM)	–	–	7.4 µg/mL (≈ 25.4 µM)	5.2	EC50 (Enterovirus A71 [3]; rd): Not Active
CCC[C@H](CCn1cncn1)c1ccccc1	63.1 µg/mL (≈ 275 µM)	58.4 µg/mL (≈ 255 µM)	–	–	–	–	–
CCC[C@H](CCn1cncn1)c1ccc(C)cc1	47.2 µg/mL (≈ 194 µM)	45.7 µg/mL (≈ 188 µM)	–	–	–	–	–
C[C@H](CCn1cncn1)Cc1ccccc1	153 µg/mL (≈ 710 µM)	144 µg/mL (≈ 670 µM)	6.2 µg/mL (≈ 28.8 µM)	24.7	11.4 µg/mL (≈ 52.9 µM)	12.6	inhibition (Enterovirus A71 [3]): Dose-dependent effect; inhibition (Coxsackievirus B3 [5]): Dose-dependent effect; inhibition at 16 µg/mL (Enterovirus A71 [7]): 72%; inhibition (Coxsackievirus B3 [8]): Active; inhibition (Enterovirus A71 [9]): Active; log(activity) (Enterovirus A71 [10]): 4.7; inhibition (Enterovirus A71 [11]): Active; inhibition (Enterovirus A71 [12]): inactive; inhibition (Enterovirus A71 [13]): inactive
CCCC[C@@H](CCn1cncn1)c1ccc(C)cc1	56.5 µg/mL (≈ 220 µM)	60.7 µg/mL (≈ 236 µM)	–	–	–	–	EC50 (Enterovirus A71 [3]; rd): Not Active; EC50 (Coxsackievirus B3 [5]): Not Active
CC[C@@H](CCn1cncn1)c1ccc(C)cc1	79.4 µg/mL (≈ 346 µM)	69.9 µg/mL (≈ 305 µM)	5.4 µg/mL (≈ 23.5 µM)	14.7	6 µg/mL (≈ 26.2 µM)	11.7	inhibition (Enterovirus A71 [3]): Dose-dependent effect; inhibition (Coxsackievirus B3 [5]): Dose-dependent effect; inhibition at 16 µg/mL (Enterovirus A71 [7]): 81%; inhibition (Coxsackievirus B3 [8]): Active; inhibition (Enterovirus A71 [9]): Active; log(activity) (Enterovirus A71 [10]): 4.7; inhibition (Enterovirus A71 [11]): Active; inhibition (Enterovirus A71 [12]): inactive; inhibition (Enterovirus A71 [13]): inactive
CC[C@@H](CCn1cncn1)c1ccc(Cl)cc1	55.3 µg/mL (≈ 221 µM)	55.1 µg/mL (≈ 221 µM)	5.4 µg/mL (≈ 21.6 µM)	10.2	10.5 µg/mL (≈ 42 µM)	5.2	–
C[C@@H](CCn1cncn1)Cc1ccccc1	114 µg/mL (≈ 530 µM)	131 µg/mL (≈ 609 µM)	9.1 µg/mL (≈ 42.3 µM)	12.6	10.3 µg/mL (≈ 47.8 µM)	12.7	inhibition (Enterovirus A71 [3]): Dose-dependent effect; inhibition (Coxsackievirus B3 [5]): Dose-dependent effect; inhibition (Enterovirus A71 [7]): Active; inhibition (Coxsackievirus B3 [8]): Active; inhibition (Enterovirus A71 [9]): Active
c1ccc(C(CCn2cncn2)C2CCCCC2)cc1 (single isomer, unassigned; 39)	11.8 µg/mL (≈ 43.8 µM)	24.8 µg/mL (≈ 92.1 µM)	–	–	5.1 µg/mL (≈ 18.9 µM)	4.9	EC50 (Enterovirus A71 [3]; rd): Not Active
CCCC[C@@H](CCn1cncn1)c1ccc(F)cc1	34.1 µg/mL (≈ 130 µM)	36 µg/mL (≈ 138 µM)	–	–	–	–	–
CCCC[C@@H](CCn1cncn1)c1ccc(Cl)cc1	18.7 µg/mL (≈ 67.3 µM)	17 µg/mL (≈ 61.2 µM)	–	–	–	–	–
Clc1ccc([C@@H](CCn2cncn2)Cc2ccccc2)cc1	24.4 µg/mL (≈ 78.3 µM)	25.9 µg/mL (≈ 83.1 µM)	–	–	–	–	–
CCC[C@@H](CCn1cncn1)c1ccc(F)cc1	56.9 µg/mL (≈ 230 µM)	55.3 µg/mL (≈ 224 µM)	–	–	–	–	–
CCCC[C@H](CCn1cncn1)c1ccc(OC)cc1	28.3 µg/mL (≈ 104 µM)	34.5 µg/mL (≈ 126 µM)	–	–	–	–	–
NC(=O)c1ncn([C@@H]2O[C@H](CO)[C@@H](O)[C@H]2O)n1 [RIBAVIRIN]	486 µg/mL (≈ 1990 µM)	572 µg/mL (≈ 2340 µM)	32.5 µg/mL (≈ 133 µM)	15	42.9 µg/mL (≈ 176 µM)	13.3	inhibition (Enterovirus A71 [7]): Active; inhibition (Coxsackievirus B3 [8]): Active
